Laboratory results from paper PMC10928712, “High Target Homology Does Not Guarantee Inhibition: Aminothiazoles Emerge as Inhibitors of Plasmodium falciparum” (ACS Infectious Diseases, 2024).

Columns and labels:
M. tuberculosis DXPS = target: M. tuberculosis DXPS; parameters: method as in PMID 36320685; conditions: Morrison inhibition constant, slow-, tight-binding; read-out: Ki* MtDXPS; cited from earlier work
P. falciparum 3D7 = assay: IDP rescue assay, P. falciparum 3D7; type: cell-based; conditions: Plasmodium falciparum
Description: Fidock (Columbia University). […] P. falciparum cultures were treated as described in method II. For IDP (Isoprenoids.com) rescue experiments, 125 μM IDP was added to the appropriate wells for the duration of the experiment. The well-described DXR inhibitor FSM was used as a positive control. IC50 values were calculated by nonlinear regression analysis using GraphPad Prism software. All experiments were performed at least in triplicate, and data reported represent the mean ± SD.

[1] = Metabolic stability in human liver S9 fraction; type: in vitro ADME; conditions: human, pooled liver S9 fraction, 1 μM compound
Description: For the evaluation of combined phase I and phase II metabolic stability, the compound (1 μM) was incubated with 1 mg/mL pooled liver S9 fraction (XenoTech), 2 mM NADPH, 1 mM UDPGA, 10 mM MgCl2, 5 mM GSH, and 0.1 mM PAPS at 37 °C for 0, 5, 15, 30, and 60 min. The metabolic stabilities of testosterone (1 μM), verapamil (1 μM), and propranolol (1 μM) were determined in parallel to confirm the enzymatic activity of the S9 fraction. The incubation was stopped by precipitation of S9 enzymes with two volumes of cold acetonitrile containing internal standard (150 nM diphenhydramine). Samples were stored on ice for 10 min, and precipitated protein was removed by centrifugation (15 min, 4 °C, 4000 rpm). The concentration of the remaining test compound at the different time points was analyzed by LC-MS/MS (TSQ Quantum Access MAX, Thermo Fisher, Dreieich, Germany) and used to determine half-life (t1/2).

[2] = system: MEP pathway metabolites in E. coli ΔTolC; assay: LC-MS/MS profiling of MEP pathway metabolites in E. coli; conditions: 48 μM (10× the IC50), 2 h, pyruvate concentration drops
Description: Overnight cultures of E. coli ΔTolC were diluted 1:1000 in LB media and grown at 37 °C until reaching the mid logarithmic phase (OD600 = 0.67–7.2). […] For normalization, the OD600 was determined after 2 h of treatment with the inhibitor. Cells were pelleted by centrifugation for 5 min at 3000g at 4 °C. The supernatants were removed, and cells were washed twice with 1× PBS. The supernatants were removed, and the pellets were stored at −80 °C until analysis. […]
For pyruvate analysis from the E. coli samples, the LC separation was done on the Shimadzu Nexera II using the Poroshell 120 (Agilent, 2.7 μm, 150 × 2.1 mm) flowing at 0.5 mL/min. […] Metabolites were detected using MRM transitions that were previously optimized using standards. […] For quantification, an external standard curve was prepared using a series of standard samples containing different concentrations of metabolites and fixed concentration of the internal standard. […]

Cc1nc(N)sc1-c1csc(Nc2ccc(C(F)(F)F)cc2)n1 [compound 1]
Ki (M. tuberculosis DXPS): 210 ± 30 nM | IC50 (P. falciparum 3D7; 3D7, 72 h, + IDP (125 μM)): 2400 ± 200 nM | IC50 (P. falciparum 3D7; 3D7, without IDP): 1900 ± 200 nM | half-life at 1 μM [1]: > 4 h | MEP pathway metabolite concentrations upon inhibitor treatment [2]: all downstream metabolites of DXPS are increased
